Laboratory results as given in patent US11352359B2, “PI3K protein kinase inhibitors” (Rhizen Pharmaceuticals SA, priority 2013, dated 2022).
Counter-ions that a name gives are not always drawn.

Columns and labels:
[1] = biological target: PI3Kγ (Homo sapiens, UniProt P48736); test: Fluorescent determination of PI3Kinase enzyme activity (HTRF), PI3Kγ; assay type: biochemical; details: for inhibition at 0.1 µM: 100 nM (underlined values: 300 nM)
Text: (§1) Fluorescent Determination of PI3Kinase Enzyme Activity
(§2) Phosphoinositide 3 kinases (PI3K) belong to a class of Lipid kinases that play a critical role in the regulation of several key cellular processes. The PI3K are capable of phosphorylating the 3-hydroxy position of phosphoinositols thereby generating second messengers involved in downstream signalling events. The homogenous time resolved fluorescence (HTRF) assay allows detection of 3,4,5-triphosphate (PIP3) formed as a result of phosphorylation of phosphotidylinositol 4,5-biphosphate (PIP2) by PI3K isoforms such as α, […], γ or δ.
(§3) PI3K isoform activity for α, β, γ or δ is to be determined using a PI3K human HTRF™ Assay Kit (Millipore, Billerica, Mass.) with modifications. All incubations were carried out at room temperature. Briefly, 0.5 μl of 40× inhibitor (in 100% DMSO) or 100% DMSO were added to each well of a 384-well black plate (Greiner Bio-One, Monroe, N.C.) containing 14.5 μl 1× reaction buffer/PIP2 (10 mM MgCl2, 5 mM DTT, 1.38 μM PIP2) mix with or without enzyme and incubated for 10 min. After the initial incubation, 5 μl/well of 400 μM ATP was added and incubated for an additional 30 minutes. Reaction was terminated by adding 5 μl/well stop solution (Millipore, Billerica, Mass.). Five microliters of detection mix (Millipore, Billerica, Mass.) were then added to each well and was incubated for 6-18 h in the dark. HRTF ratio was measured on a microplate reader (BMG Labtech, Germany) at an excitation wavelength of 337 nm and emission wavelengths of 665 and 620 nm with an integration time of 400 μsec. Data was analyzed using Graphpad Prism (Graphpad software; San Diego Calif.) for IC50 determination).

[2] = biological target: PI3Kδ (Homo sapiens, UniProt O00329); test: Fluorescent determination of PI3Kinase enzyme activity (HTRF), PI3Kδ; assay type: biochemical; details: for inhibition at 0.1 µM: 100 nM (underlined values: 300 nM)
Chain of PI3Kδ (O00329 whole entry): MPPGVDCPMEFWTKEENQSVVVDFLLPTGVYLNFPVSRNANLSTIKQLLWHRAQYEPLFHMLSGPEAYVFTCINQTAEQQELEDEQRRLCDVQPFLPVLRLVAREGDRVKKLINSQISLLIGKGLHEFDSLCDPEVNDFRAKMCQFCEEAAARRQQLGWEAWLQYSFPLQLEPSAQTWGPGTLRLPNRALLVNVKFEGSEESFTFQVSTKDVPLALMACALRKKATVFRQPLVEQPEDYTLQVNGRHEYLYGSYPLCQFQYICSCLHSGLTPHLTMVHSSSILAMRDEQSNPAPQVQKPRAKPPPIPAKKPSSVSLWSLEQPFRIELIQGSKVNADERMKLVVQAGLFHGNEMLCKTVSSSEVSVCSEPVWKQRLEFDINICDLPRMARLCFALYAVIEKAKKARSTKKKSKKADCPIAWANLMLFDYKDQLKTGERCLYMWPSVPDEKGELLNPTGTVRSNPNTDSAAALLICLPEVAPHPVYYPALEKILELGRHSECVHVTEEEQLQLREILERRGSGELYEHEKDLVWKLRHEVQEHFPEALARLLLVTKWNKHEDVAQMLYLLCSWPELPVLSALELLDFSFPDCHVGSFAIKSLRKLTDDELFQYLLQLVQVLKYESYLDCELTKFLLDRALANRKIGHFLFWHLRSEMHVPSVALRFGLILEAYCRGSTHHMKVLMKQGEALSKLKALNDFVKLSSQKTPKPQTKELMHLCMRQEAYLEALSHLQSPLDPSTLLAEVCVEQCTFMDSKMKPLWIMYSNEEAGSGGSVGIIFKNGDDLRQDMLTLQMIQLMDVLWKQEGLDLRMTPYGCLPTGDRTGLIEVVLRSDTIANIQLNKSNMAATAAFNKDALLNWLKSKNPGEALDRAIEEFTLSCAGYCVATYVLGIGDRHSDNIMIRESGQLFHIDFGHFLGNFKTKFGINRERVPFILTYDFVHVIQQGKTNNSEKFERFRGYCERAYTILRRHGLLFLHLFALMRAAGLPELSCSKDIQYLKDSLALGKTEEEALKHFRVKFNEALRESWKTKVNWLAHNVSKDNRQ
Chain of PI3Kδ (P27986 whole entry partner): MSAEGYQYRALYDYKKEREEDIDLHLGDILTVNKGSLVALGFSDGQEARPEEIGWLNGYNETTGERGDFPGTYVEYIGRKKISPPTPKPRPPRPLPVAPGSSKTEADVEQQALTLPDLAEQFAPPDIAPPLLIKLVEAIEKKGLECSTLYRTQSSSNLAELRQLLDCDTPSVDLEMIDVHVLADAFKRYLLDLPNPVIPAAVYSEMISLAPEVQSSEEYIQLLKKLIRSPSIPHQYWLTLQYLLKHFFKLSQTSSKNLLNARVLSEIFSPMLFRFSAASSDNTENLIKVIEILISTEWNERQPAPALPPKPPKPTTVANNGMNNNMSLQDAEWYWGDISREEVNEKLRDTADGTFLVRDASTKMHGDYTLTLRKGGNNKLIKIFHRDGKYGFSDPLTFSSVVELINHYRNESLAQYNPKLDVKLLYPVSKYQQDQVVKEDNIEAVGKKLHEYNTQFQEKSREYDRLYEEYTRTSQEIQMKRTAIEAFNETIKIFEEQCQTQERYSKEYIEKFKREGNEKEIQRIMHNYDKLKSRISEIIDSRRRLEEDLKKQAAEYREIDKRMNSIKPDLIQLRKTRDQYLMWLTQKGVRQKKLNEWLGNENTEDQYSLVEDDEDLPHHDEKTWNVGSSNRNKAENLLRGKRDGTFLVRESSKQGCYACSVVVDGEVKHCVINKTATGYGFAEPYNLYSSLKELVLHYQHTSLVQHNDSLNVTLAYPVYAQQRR
Text: as §1, §2, §3

[3] = biological target: PI3Kβ (Homo sapiens, UniProt P42338); test: Fluorescent determination of PI3Kinase enzyme activity (HTRF), PI3Kβ; assay type: biochemical
Chain of PI3Kβ (P42338 whole entry): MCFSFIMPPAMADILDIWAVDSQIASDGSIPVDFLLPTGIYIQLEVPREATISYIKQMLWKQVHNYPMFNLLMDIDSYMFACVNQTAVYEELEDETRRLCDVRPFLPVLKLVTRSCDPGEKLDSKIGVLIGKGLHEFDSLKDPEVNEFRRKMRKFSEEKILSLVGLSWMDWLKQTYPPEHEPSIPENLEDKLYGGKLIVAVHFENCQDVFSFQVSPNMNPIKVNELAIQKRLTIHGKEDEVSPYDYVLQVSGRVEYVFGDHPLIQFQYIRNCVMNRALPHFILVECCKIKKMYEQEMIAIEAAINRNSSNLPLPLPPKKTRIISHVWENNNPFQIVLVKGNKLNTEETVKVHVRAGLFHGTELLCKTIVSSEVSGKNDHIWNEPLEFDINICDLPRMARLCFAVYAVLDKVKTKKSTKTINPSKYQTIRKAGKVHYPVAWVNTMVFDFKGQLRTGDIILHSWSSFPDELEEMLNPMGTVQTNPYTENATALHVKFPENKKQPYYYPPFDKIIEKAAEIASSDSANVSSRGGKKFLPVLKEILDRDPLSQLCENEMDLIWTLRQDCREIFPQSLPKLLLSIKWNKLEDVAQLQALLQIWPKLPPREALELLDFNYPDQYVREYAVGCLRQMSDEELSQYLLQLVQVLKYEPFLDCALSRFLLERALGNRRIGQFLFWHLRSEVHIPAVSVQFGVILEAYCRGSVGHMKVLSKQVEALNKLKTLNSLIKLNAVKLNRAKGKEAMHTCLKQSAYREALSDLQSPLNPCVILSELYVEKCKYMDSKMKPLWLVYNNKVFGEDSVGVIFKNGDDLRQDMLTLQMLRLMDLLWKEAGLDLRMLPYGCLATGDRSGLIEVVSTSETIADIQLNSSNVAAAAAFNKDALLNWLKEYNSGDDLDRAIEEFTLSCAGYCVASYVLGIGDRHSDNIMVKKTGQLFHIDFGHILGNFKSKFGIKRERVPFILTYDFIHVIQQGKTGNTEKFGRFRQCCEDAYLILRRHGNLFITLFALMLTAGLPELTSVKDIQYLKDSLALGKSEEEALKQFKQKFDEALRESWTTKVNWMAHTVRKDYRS
Chain of PI3Kβ (P27986 whole entry partner): as the sequence (P27986 whole entry partner) above
Text: as §1, §2, §3

[4] = biological target: PI3Kα (Homo sapiens, UniProt P42336); test: Fluorescent determination of PI3Kinase enzyme activity (HTRF), PI3Kα; assay type: biochemical
Chain of PI3Kα (P42336 whole entry): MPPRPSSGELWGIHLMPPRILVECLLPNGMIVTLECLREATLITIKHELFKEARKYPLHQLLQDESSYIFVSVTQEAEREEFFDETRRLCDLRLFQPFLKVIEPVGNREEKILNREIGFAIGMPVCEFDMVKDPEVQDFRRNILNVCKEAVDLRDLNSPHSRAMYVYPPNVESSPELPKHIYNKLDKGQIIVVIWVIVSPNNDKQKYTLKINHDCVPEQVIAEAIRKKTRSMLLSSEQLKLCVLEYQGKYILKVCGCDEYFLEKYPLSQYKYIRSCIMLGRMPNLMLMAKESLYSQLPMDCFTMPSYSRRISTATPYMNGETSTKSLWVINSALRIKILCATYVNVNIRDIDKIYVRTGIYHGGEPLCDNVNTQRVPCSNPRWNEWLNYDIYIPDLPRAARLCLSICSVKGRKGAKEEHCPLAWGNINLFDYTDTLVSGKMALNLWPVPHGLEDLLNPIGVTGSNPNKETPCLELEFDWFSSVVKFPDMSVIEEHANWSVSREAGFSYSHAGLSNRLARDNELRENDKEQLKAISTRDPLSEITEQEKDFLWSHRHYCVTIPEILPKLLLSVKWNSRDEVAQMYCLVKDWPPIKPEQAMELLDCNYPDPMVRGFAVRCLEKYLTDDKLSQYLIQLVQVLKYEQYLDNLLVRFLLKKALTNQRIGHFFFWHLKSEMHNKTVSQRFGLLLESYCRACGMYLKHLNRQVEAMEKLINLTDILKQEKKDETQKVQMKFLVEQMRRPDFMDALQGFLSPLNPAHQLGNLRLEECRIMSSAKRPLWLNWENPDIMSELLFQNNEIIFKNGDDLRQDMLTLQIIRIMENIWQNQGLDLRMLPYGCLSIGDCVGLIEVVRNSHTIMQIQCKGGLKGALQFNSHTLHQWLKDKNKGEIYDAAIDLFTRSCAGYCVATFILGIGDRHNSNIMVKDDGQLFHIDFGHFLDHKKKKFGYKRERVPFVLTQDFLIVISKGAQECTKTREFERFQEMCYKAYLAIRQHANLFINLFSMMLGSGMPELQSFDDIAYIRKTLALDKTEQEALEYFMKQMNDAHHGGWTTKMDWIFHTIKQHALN
Chain of PI3Kα (P27986 whole entry partner): as the sequence (P27986 whole entry partner) above
Text: as §1, §2, §3

Chain of PI3Kγ (P48736 whole entry): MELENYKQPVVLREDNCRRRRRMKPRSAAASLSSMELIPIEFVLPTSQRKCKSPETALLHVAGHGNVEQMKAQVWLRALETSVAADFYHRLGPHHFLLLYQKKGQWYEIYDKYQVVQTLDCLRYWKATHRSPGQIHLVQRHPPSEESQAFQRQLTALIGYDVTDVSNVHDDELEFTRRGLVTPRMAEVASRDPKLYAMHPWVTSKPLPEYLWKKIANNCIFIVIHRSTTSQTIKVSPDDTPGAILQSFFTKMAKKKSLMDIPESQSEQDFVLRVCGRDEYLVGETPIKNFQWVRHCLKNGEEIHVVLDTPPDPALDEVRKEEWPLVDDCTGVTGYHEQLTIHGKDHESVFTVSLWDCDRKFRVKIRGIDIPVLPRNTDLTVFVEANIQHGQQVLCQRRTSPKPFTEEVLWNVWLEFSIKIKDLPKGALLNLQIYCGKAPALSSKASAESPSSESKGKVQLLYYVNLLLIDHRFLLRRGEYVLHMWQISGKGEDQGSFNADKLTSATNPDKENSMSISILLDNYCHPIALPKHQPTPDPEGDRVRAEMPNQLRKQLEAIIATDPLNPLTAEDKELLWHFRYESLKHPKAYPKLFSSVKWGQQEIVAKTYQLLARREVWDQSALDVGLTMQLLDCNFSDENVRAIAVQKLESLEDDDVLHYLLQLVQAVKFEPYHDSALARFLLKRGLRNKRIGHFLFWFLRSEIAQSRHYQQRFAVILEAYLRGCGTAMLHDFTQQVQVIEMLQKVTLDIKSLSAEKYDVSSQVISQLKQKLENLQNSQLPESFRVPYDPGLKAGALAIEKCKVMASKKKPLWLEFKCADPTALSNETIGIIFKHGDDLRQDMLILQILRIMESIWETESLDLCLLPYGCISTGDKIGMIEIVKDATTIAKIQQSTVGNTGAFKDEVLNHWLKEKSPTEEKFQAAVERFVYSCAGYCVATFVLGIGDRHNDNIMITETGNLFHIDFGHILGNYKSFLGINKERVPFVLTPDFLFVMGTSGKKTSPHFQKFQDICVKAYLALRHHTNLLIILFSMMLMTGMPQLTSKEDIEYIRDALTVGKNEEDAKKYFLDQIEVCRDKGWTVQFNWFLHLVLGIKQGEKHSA

Row | SMILES | melting point [°C] | inhibition at 0.1 µM [1] [%] | inhibition at 0.1 µM [2] [%] | inhibition at 1 µM [3] [%] | inhibition at 1 µM [4] [%] | IC50 [1] [nM] | IC50 [2] [nM]
1 | CCC(c1nc2ccccc2c(=O)n1-c1ccccc1)n1nc(-c2ccc(OC(C)C)c(F)c2)c2c(N)ncnc21 (stereo not drawn) [Example 22, 2-{1-[4-Amino-3-(3-fluoro-4-isopropoxy-phenyl)-pyrazolo[3,4-d]pyrimidin-1-yl]-propyl}-3-phenyl-3H-quinazolin-4-one] | 261 to 263 |  |  |  |  |  | 
2 | CC(C)Oc1ccc(-c2nn(C(C)c3cc4cccc(Cl)c4c(=O)n3-c3ccccc3)c3ncnc(N)c23)cc1F (stereo not drawn) [Example 1, 3-(1-(4-amino-3-(3-fluoro-4-isopropoxyphenyl)-1H-pyrazolo[3,4-d]pyrimidin-1-yl)ethyl)-8-chloro-2-phenylisoquinolin-1(2H)-one] | 164 to 166 | 0 to 20 | 20 to 40 | 0 to 10 | 0 to 10 |  | 
3 | COc1ccc(-c2nn(C(C)c3cc4ccccc4c(=O)n3-c3ccccc3)c3ncnc(N)c23)cc1NS(C)(=O)=O (stereo not drawn) [Example 9, N-(5-(4-amino-1-(1-(1-oxo-2-phenyl-1,2-dihydroisoquinolin-3-yl)ethyl)-1H-pyrazolo[3,4-d]pyrimidin-3-yl)-2-methoxyphenyl)methanesulfonamide] | 260 to 263 | 20 to 40 | 40 to 60 | 40 to 60 | 20 to 40 |  | 
4 | CC(c1cc2cccc(Cl)c2c(=O)n1-c1ccccc1)n1nc(-c2ccc(O)c(F)c2)c2c(N)ncnc21 (stereo not drawn) [Example 14, 3-(1-(4-amino-3-(3-fluoro-4-hydroxyphenyl)-1H-pyrazolo[3,4-d]pyrimidin-1-yl)ethyl)-8-chloro-2-phenylisoquinolin-1(2H)-one] | 218 to 219 | 80 to 100 | 60 to 80 | 60 to 80 | 20 to 40 |  | 
5 | CC(C)Oc1ccc(-c2nn(C(C)c3nc4ccc(F)cc4c(=O)n3-c3ccccc3)c3ncnc(N)c23)cc1F (stereo not drawn) (as salt: potassium) [Example 4, 2-(1-(4-amino-3-(3-fluoro-4-isopropoxyphenyl)-1H-pyrazolo[3,4-d]pyrimidin-1-yl)ethyl)-6-fluoro-3-phenylquinazolin-4(3H)-one] | 215 to 218 |  |  |  |  |  | 
6 | CC(C)Oc1ccc(-c2nn(C(C)c3nc4ccccc4c(=O)n3-c3ccccc3)c3ncnc(N)c23)cc1F (stereo not drawn) (as salt: potassium) [Example 6, 2-(1-(4-amino-3-(3-fluoro-4-isopropoxyphenyl)-1H-pyrazolo[3,4-d]pyrimidin-1-yl)ethyl)-3-phenylquinazolin-4(3H)-one] | 236 to 239 |  |  |  |  |  | 
7 | CC(C)Oc1ccc(-c2nn(C(C)c3cc4cccc(F)c4c(=O)n3-c3ccccc3)c3ncnc(N)c23)cc1F (stereo not drawn) [Example 2, 3-(1-(4-amino-3-(3-fluoro-4-isopropoxyphenyl)-1H-pyrazolo[3,4-d]pyrimidin-1-yl)ethyl)-8-fluoro-2-phenylisoquinolin-1(2H)-one] |  | 0 to 20 | 0 to 20 | 10 to 20 | 0 to 10 |  | 
8 | CC(C)Oc1ccc(-c2nn(C(C)c3nc4cccc(F)c4c(=O)n3-c3ccccc3)c3ncnc(N)c23)cc1F (stereo not drawn) [Example 3, 2-(1-(4-amino-3-(3-fluoro-4-isopropoxyphenyl)-1H-pyrazolo[3,4-d]pyrimidin-1-yl)ethyl)-5-fluoro-3-phenylquinazolin-4(3H)-one] |  | 0 to 20 | 0 to 20 | 10 to 20 | 0 to 10 |  | 
9 | CC(C)Oc1ccc(-c2nn(C(C)c3cc4ccccc4c(=O)n3-c3ccccc3)c3ncnc(N)c23)cc1F (stereo not drawn) [Example 5, 3-(1-(4-amino-3-(3-fluoro-4-isopropoxyphenyl)-1H-pyrazolo[3,4-d]pyrimidin-1-yl)ethyl)-2-phenylisoquinolin-1(2H)-one] |  | 60 to 80 | 80 to 100 | 10 to 20 | 0 to 10 |  | 
10 | CC(C)Oc1ccc(-c2nn(C(C)c3nc4ccc(F)cc4c(=O)n3-c3ccccc3)c3ncnc(N)c23)cc1F (stereo not drawn) [Example 4, 2-(1-(4-amino-3-(3-fluoro-4-isopropoxyphenyl)-1H-pyrazolo[3,4-d]pyrimidin-1-yl)ethyl)-6-fluoro-3-phenylquinazolin-4(3H)-one] |  | 40 to 60 | 0 to 20 | 20 to 40 | 0 to 10 |  | 
11 | CC(c1cc2cccc(Cl)c2c(=O)n1-c1ccccc1)n1nc(-c2ccc(OC(F)F)c(F)c2)c2c(N)ncnc21 (stereo not drawn) (as salt: potassium) [Example 17, 3-(1-(4-amino-3-(4-(difluoromethoxy)-3-fluorophenyl)-1H-pyrazolo[3,4-d]pyrimidin-1-yl)ethyl)-8-chloro-2-phenylisoquinolin-1(2H)-one] | 160 to 162 |  |  |  |  |  | 
12 | CC(C)Oc1ccc(-c2nn(C(C)c3cc4cccc(F)c4c(=O)n3-c3ccccc3)c3ncnc(N)c23)cc1F (stereo not drawn) (as salt: potassium) [Example 2, 3-(1-(4-amino-3-(3-fluoro-4-isopropoxyphenyl)-1H-pyrazolo[3,4-d]pyrimidin-1-yl)ethyl)-8-fluoro-2-phenylisoquinolin-1(2H)-one] | 264 to 266 |  |  |  |  |  | 
13 | CC(c1cc2cccc(Cl)c2c(=O)n1-c1ccccc1)n1nc(-c2ccc(OC(F)F)c(F)c2)c2c(N)ncnc21 (stereo not drawn) [Example 17, 3-(1-(4-amino-3-(4-(difluoromethoxy)-3-fluorophenyl)-1H-pyrazolo[3,4-d]pyrimidin-1-yl)ethyl)-8-chloro-2-phenylisoquinolin-1(2H)-one] |  | 80 to 100 | 80 to 100 | 40 to 60 | 20 to 40 |  | 
14 | COc1ccc(-c2nn(C(C)c3nc4ccccc4c(=O)n3-c3ccccc3)c3ncnc(N)c23)cc1NS(C)(=O)=O (stereo not drawn) [Example 12, N-(5-(4-amino-1-(1-(4-oxo-3-phenyl-3,4-dihydroquinazolin-2-yl)ethyl)-1H-pyrazolo[3,4-d]pyrimidin-3-yl)-2-methoxyphenyl)methanesulfonamide] |  | 20 to 40 | 0 to 20 | 20 to 40 | 0 to 10 |  | 

The next lines start with the values.

Row | melting point [°C] | inhibition at 0.1 µM [1] [%] | inhibition at 0.1 µM [2] [%] | inhibition at 1 µM [3] [%] | inhibition at 1 µM [4] [%] | IC50 [1] [nM] | IC50 [2] [nM] | SMILES
15 |  | 20 to 40 | 80 to 100 | 10 to 20 | 0 to 10 | 122 | 33.3 | C[C@@H](c1nc2cccc(F)c2c(=O)n1-c1ccccc1)n1nc(-c2ccc(O)c(F)c2)c2c(N)ncnc21 [Example 16a, (+)-2-(1-(4-amino-3-(3-fluoro-4-hydroxyphenyl)-1H-pyrazolo[3,4-d]pyrimidin-1-yl)ethyl)-5-fluoro-3-phenylquinazolin-4(3H)-one]
16 |  | 60 to 80 | 60 to 80 | 20 to 40 | 0 to 10 | 57.7 | 13.3 | C[C@@H](c1cc2ccccc2c(=O)n1-c1ccccc1)n1nc(-c2ccc(O)c(F)c2)c2c(N)ncnc21 [Example 7a, (+)-3-(1-(4-amino-3-(3-fluoro-4-hydroxyphenyl)-1H-pyrazolo[3,4-d]pyrimidin-1-yl)ethyl)-2-phenylisoquinolin-1(2H)-one]
17 |  | 0 to 20 | 20 to 40 | 0 to 10 | 0 to 10 |  |  | C[C@@H](c1cc2cccc(Cl)c2c(=O)n1-c1ccccc1)n1nc(-c2ccc(OC(F)F)c(F)c2)c2c(N)ncnc21 [Example 17a, (+)-3-(1-(4-amino-3-(4-(difluoromethoxy)-3-fluorophenyl)-1H-pyrazolo[3,4-d]pyrimidin-1-yl)ethyl)-8-chloro-2-phenylisoquinolin-1(2H)-one]
18 |  | 80 to 100 | 80 to 100 | 10 to 20 | 0 to 10 | 19.5 | 4.2 | C[C@@H](c1cc2cccc(Cl)c2c(=O)n1-c1ccccc1)n1nc(-c2ccc(O)c(F)c2)c2c(N)ncnc21 [Example 14a, (+)-3-(1-(4-amino-3-(3-fluoro-4-hydroxyphenyl)-1H-pyrazolo[3,4-d]pyrimidin-1-yl)ethyl)-8-chloro-2-phenylisoquinolin-1(2H)-one]
19 |  | 20 to 40 | 60 to 80 | 10 to 20 | 0 to 10 | 142 | 76.4 | COc1ccc(-c2nn([C@@H](C)c3cc4cccc(Cl)c4c(=O)n3-c3ccccc3)c3ncnc(N)c23)cc1NS(C)(=O)=O [Example 20a, (+)—N-(5-(4-amino-1-(1-(8-chloro-1-oxo-2-phenyl-1,2-dihydroisoquinolin-3-yl)ethyl)-1H-pyrazolo[3,4-d]pyrimidin-3-yl)-2-methoxyphenyl)methanesulfonamide]
